According to PMC10649274 (International Journal of Molecular Sciences, 2023):
Values joined by “and” are separate entries in the source; they are usually repeats but may differ in a detail not shown here. Identical values can stand only once. “Also recorded” adds a separate entry of the source. Like-named read-outs stand apart in the source and are kept apart here.

Columns and labels:
native NMDA receptors [1] = details: cited from earlier work
native NMDA receptors [2] = assay: Analysis of voltage dependence of NMDA receptor block (Woodhull model with voltage-independent component, Equation (2)); format: cell-based, rat
Method: NMDA receptors were activated with 100 µM NMDA plus 10 µM glycine unless otherwise stated. The percentages of blocking of the steady-state or peak currents by different drug concentrations were measured at −80, −30 or +30 mV holding voltages. Kinetics of transient processes of more than 20 ms duration were approximated with single or double exponential functions. In case of double exponential fitting, the weighted time constant was used.
The voltage dependence of compounds’ action was analyzed with the classical Woodhull model with the addition of a voltage-independent component. […] Kb is the affinity of a drug for the channel, and δ is the electrical depth of the binding site. The δ value reflects the fraction of membrane electric field that the charged blocking molecule crosses on its pathway between the external media and the binding site in the channel.
Thus, we deduced Equation (2), taking it into account and assuming that the binding to the deep and shallow site is independent:(2) B=100−100/(1+C/(Kvd∗exp〖Fzδ/RTV〗)+C/Kvi+(C∗C)/((Kvd∗exp〖Fzδ/RTV〗∗Kvi))
In this equation, Kvd is the affinity of the drug to the deep site, Kvi—the affinity of the drug to the shallow site, and other parameters are the same as in Equation (1).
All experimental data are presented as the mean ± SD estimated from at least four experiments (cells). Significance of the effects was tested with t-tests. Differences were considered significant at p < 0.05. Concentration dependencies were approximated with Hill equation. Voltage dependencies were approximated with Equation (2). […] Approximation error values were taken as the precision measures.

[3] = test system: rat retinal excitotoxicity model; details: cited from earlier work
native NMDA receptors [4] = details: cited from earlier work; remark: listed apart in the source
native NMDA receptors [5] = assay: Whole-cell patch clamp of NMDA plus glycine induced currents in isolated CA1 pyramidal neurons; format: cell-based, rat
Method: The rats were anesthetised with sevoflurane and then decapitated. The brains were brought out quickly and cooled to 2–4 °C. […] All experiments were performed at room temperature.
Vibrodissociation method was used to free CA1 pyramidal neurons from slices. This method allows for isolating cells without enzymatic treatment and keeping them in more native state. Pyramidal cells were isolated from the stratum pyramidale and distinguished from non-pyramidal cells on the basis of pyramidal-like somata and preserved apical dendrites.
To record membrane currents in response to applications of NMDA and glycine, the whole-cell configuration of patch clamp technique was used. Series resistance (<20 MΩ) was compensated by 70–80% and monitored during experiments. Only cells with stable holding currents were used in further analysis. The current signals were amplified using EPC-8 (HEKA Electronics, Lambrecht, Germany), filtered at 5 kHz, sampled, and stored on a personal computer. RSC-200 (BioLogic Science Instruments, Claix, France) perfusion system was used to apply the drugs under computer control. […] The pipettes with resistance of 2–5 MΩ were filled with the following solution (in mM): CsF 100, CsCl 40, NaCl 5, CaCl2 0.5, EGTA 5, HEPES 10 (pH adjusted to 7.2 with CsOH). […] Other reagents were purchased from MedChemExpress (Monmouth Junction, NJ, USA), Sigma (St. Louis, MO, USA), or Tocris Bioscience (Bristol, UK).
NMDA receptors were activated with 100 µM NMDA plus 10 µM glycine unless otherwise stated. […] Kinetics of transient processes of more than 20 ms duration were approximated with single or double exponential functions. In case of double exponential fitting, the weighted time constant was used.

[6] = test system: animal pancreatitis models; details: cited from earlier work
[7] = molecular target: GLUN2B-containing NMDA receptor; details: fractionated rat brain membranes; read-out: IC50 of [3H]ifenprodil binding inhibition; cited from earlier work
[8] = Equation (2) fit, zδ free, reanalysis of the authors' earlier voltage dependence data [16],[17], read-out: Kvd
[9] = Equation (2) fit, zδ free, reanalysis of the authors' earlier voltage dependence data [16],[17], read-out: Kvi
[10] = Equation (2) with fixed zδ (0.55 mono-, 1.1 dicationic), reanalysis of earlier data [16],[17], read-out: Kvd, fixed zδ (converted)
[11] = Equation (2) with fixed zδ (0.55 mono-, 1.1 dicationic), reanalysis of earlier data [16],[17], read-out: Kvi, fixed zδ (converted)
[12] = −80 mV holding voltage, native NMDA receptors, earlier papers of the authors, read-out: IC50, −80 mV

In the case of `CC(C(O)c1ccc(O)cc1)N1CCC(Cc2ccccc2)CC1` (stereo not shown) [Ifenprodil, ifenprodil], the “share of high-affinity component in inhibition of NMDA receptor currents” value (native NMDA receptors [1]; CA1 pyramidal cells, biphasic concentration dependence) is given as “approximately 60%”.
With `CCOC(=O)c1ccc(OC(=O)CCCCCNC(=N)N)cc1` [Gabexate] the Kd (native NMDA receptors [2]; [8]) was about 300 µM, the Kd (native NMDA receptors [2]; [9]) was 29 ± 8 µM and the Kd (native NMDA receptors [2]; [10]) was 800 µM. The Kd (native NMDA receptors [2]; [11]) was 25 µM, the “inhibition of native NMDA receptors” value (native NMDA receptors [1]) was “inhibited native NMDA receptors” and the “nature of voltage-independent inhibition” value (native NMDA receptors [1]) was “agonist-dependent but non-competitive; also recorded: mostly voltage-independent and not competitive”. The “type of channel block (interaction with channel gate)” value (“type of channel block” for short) (native NMDA receptors [1]) was “did not demonstrate any signs of a “foot-in-the-door” or trapping channel block”, the IC50 (native NMDA receptors [1]; [12]) was 16 ± 3 µM and the retinal protection [3] was “did not demonstrate retinal protection activities”. The “voltage dependence of NMDA receptor inhibition” value (native NMDA receptors [4]) was “Completely voltage-independent”.
Molecule `N=C(N)c1ccc(/N=N/Nc2ccc(C(=N)N)cc2)cc1` [Diminazene] has a Kd (native NMDA receptors [2]; [8]) of about 600 µM, a Kd (native NMDA receptors [2]; [9]) of 14 ± 2 µM and a Kd (native NMDA receptors [2]; [10]) of 1500 µM. The Kd (native NMDA receptors [2]; [11]) was 14 ± 2 µM, the Kd (native NMDA receptors [2]; fit with consensus zδ, read-out: binding constant for the deep site (Kvd)) was over 1000 µM and the “type of channel block” value (native NMDA receptors [1]) was “foot-in-the-door”. For the same molecule, the IC50 (native NMDA receptors [1]; [12]) was 13 ± 3 µM, the “change of inhibition with increase of NMDA concentration” value (native NMDA receptors [5]; −30 mV) was “significant attenuation” and the “inhibition at 1 mM NMDA” value (native NMDA receptors [5]; −30 mV, 1 mM NMDA) was “remained significant”. For the same molecule, the “change of inhibition with increase of NMDA concentration from 30 to 1000 µM” value (“change of inhibition with increase … to 1000 µM” for short) (native NMDA receptors [5]; −80 mV) was “did not differ significantly” and the “voltage dependence of NMDA receptor inhibition” value (native NMDA receptors [4]) was “complex voltage dependence”.
Molecule `N=C(N)c1ccc(OCCCCCOc2ccc(C(=N)N)cc2)cc1` [Pentamidine] has a Kd (native NMDA receptors [2]; [8]) of 60 ± 25 µM, a Kd (native NMDA receptors [2]; [9]) of 8 ± 1 µM and a Kd (native NMDA receptors [2]; [10]) of 27 µM. For the same molecule, the Kd (native NMDA receptors [2]; [11]) was 10 µM, the “IC50 (NMDA receptor antagonism)” value (native NMDA receptors [1]) was “submicromolar range” and the “type of channel block” value (native NMDA receptors [1]) was “partial trapping”. The IC50 (native NMDA receptors [1]; [12]) was 0.41 ± 0.08 µM, the “change of inhibition with increase … to 1000 µM” value (native NMDA receptors [5]; holding voltage not stated) was “not attenuated significantly” and the “voltage dependence of NMDA receptor inhibition” value (native NMDA receptors [4]) was “strongly voltage-dependent”.
For `N=C(N)c1ccc2cc(OC(=O)c3ccc(N=C(N)N)cc3)ccc2c1` [Nafamostat], the “activity in animal pancreatitis models” value [6] is listed as “significant activity”, the Kd (native NMDA receptors [2]; [8]) is listed as 12 ± 3 µM and the Kd (native NMDA receptors [2]; [9]) is listed as 2.9 ± 0.5 µM. For the same molecule, the Kd (native NMDA receptors [2]; [10]) was 10 µM and 10.5 µM, the Kd (native NMDA receptors [2]; [11]) was 3 µM and the “effect on plateau/peak ratio” value (native NMDA receptors [1]) was “did not significantly change the plateau/peak ratio”. The overshoots after washout (native NMDA receptors [1]) was “did not demonstrate overshoots”, the “type of channel block” value (native NMDA receptors [1]) was “foot-in-the-door” and the “activity in the presence of magnesium” value (native NMDA receptors [1]; −30 mV, 1 mM Mg2+) was “attenuated in the presence of magnesium”. The IC50 (native NMDA receptors [1]; −30 mV, 1 mM Mg2+, read-out: IC50 in the presence of magnesium) was 1.7 ± 0.2 µM, the IC50 (native NMDA receptors [1]; [12]) was 0.2 ± 0.04 µM and the “change of inhibition with increase … to 1000 µM” value (native NMDA receptors [5]; holding voltage not stated) was “not attenuated significantly”. The retinal protection [3] was “retinoprotective properties”, the IC50 [7] was 4.52 µM and the “voltage dependence of NMDA receptor inhibition” value (native NMDA receptors [4]) was “strongly voltage-dependent”.
In the case of `CN(C)C(=O)COC(=O)Cc1ccc(OC(=O)c2ccc(NC(=N)N)cc2)cc1` [Camostat], the “inhibition of native NMDA receptors” value (native NMDA receptors [1]) is given as “low activity; also recorded: practically ineffective”, the IC50 (native NMDA receptors [1]; [12]) is given as over 100 µM and the retinal protection [3] is given as “did not demonstrate retinal protection activities”.
